Experiments:
Assay type in all cases: cell-based
NTCP = molecular target: T1, NTCP (Homo sapiens, UniProt Q14973); experiment: Uptake of DY-635 into transporter-transfected HEK-293T cells; conditions: 10 μmol/L, 5 minutes
T1 construct: expressed in transfected cells; host or cells: HEK-293T
T1 sequence (Q14973 1-349): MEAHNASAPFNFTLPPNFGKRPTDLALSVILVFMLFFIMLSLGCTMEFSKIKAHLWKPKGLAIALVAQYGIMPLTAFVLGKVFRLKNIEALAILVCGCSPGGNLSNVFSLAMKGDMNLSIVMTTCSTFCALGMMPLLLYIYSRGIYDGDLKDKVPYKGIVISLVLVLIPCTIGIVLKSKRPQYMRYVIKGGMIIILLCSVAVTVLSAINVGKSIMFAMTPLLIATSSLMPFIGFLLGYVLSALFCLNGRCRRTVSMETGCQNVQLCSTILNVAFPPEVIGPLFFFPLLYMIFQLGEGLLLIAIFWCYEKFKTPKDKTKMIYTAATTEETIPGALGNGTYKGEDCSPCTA
Method: (§1) HEK-293T cells were transfected with human tissue-specific hepatocytic transporters. Then the uptake of the polymethine dye DY-635 as a targeting unit into these tissue-specific transporters was investigated for FIG. 10 A. To do so, the cells were sown onto 96 well plates, incubated for 24 hours under standard conditions, then incubated 5 minutes with DY-635 (final concentration in the well: 10 μmol/L) after changing the medium. Next the cells were lysed and the lysates were measured by fluorimetry. […] The uptake by OCT1 can be evaluated as negligible. In FIG. 10 B the question of whether DY-635 binds as an inhibitor to the basolateral hepatocytic transporters was investigated. For this purpose, the HEK-293T cells transfected with the tissue-specific transporters were sown and incubated as described above. After 24 hours the cells were incubated for 5 minutes with either a radioactively labeled transporter-specific substrate or with the radioactive-specific substrate with a specific inhibitor or with DY-635 (10 μmol/L final concentration) (the substrates and their concentrations are shown in Table 3 below). The cells were then washed and lysed in the well. To quantify the uptake, the radioactive radiation of the substrates was used. […] This illustrates the strong interaction of DY-635 with the tissue-specific hepatocytic transporters. […]

OCT1 [1] = molecular target: T2, OCT1 (Homo sapiens, UniProt O15245); experiment: as above; conditions: 10 μmol/L, 5 minutes
T2 construct: expressed in transfected cells; host or cells: HEK-293T
T2 sequence (O15245 1-554): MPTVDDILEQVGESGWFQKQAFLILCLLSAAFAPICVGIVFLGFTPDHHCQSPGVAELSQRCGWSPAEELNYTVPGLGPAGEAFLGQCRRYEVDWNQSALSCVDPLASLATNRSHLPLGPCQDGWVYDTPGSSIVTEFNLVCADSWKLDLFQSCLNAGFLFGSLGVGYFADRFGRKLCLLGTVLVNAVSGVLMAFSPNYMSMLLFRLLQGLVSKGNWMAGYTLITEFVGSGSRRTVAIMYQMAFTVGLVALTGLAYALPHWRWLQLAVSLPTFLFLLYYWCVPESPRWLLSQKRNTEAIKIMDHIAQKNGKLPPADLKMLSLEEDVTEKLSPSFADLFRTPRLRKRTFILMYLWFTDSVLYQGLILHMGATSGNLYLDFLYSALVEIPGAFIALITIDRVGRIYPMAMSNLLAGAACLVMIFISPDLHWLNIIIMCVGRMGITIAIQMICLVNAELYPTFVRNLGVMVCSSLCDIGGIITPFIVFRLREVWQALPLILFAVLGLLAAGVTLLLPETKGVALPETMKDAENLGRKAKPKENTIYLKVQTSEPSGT
Method: as §1

OAT2 = molecular target: T3, OAT2 (Homo sapiens, UniProt Q9Y694); experiment: Inhibition of radioactively labeled substrate uptake in transfected HEK-293T cells; conditions: 10 μmol/L, 5 minutes; [3H]cGMP 10 nM
T3 construct: expressed in transfected cells; host or cells: HEK-293T
T3 sequence (Q9Y694 1-548): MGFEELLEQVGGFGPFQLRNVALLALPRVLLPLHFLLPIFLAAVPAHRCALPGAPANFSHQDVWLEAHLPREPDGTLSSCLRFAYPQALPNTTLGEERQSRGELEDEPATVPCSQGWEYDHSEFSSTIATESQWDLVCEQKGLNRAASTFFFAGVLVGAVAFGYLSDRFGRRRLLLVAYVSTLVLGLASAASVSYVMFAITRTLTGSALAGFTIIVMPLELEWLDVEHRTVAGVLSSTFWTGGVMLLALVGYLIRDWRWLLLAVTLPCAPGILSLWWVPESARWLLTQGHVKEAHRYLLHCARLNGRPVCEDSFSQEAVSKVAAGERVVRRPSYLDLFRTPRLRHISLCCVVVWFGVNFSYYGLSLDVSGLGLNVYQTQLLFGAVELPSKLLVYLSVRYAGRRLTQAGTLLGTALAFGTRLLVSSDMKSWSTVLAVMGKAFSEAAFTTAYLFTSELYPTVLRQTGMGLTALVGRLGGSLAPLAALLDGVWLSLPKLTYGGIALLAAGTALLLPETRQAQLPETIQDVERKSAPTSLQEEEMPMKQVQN
Method: (§2) HEK-293T cells were transfected with human tissue-specific hepatocytic transporters. Then the uptake of the polymethine dye DY-635 as a targeting unit into these tissue-specific transporters was investigated for FIG. 10 A. To do so, the cells were sown onto 96 well plates, incubated for 24 hours under standard conditions, then incubated 5 minutes with DY-635 (final concentration in the well: 10 μmol/L) after changing the medium. Next the cells were lysed and the lysates were measured by fluorimetry. […] The uptake by OCT1 can be evaluated as negligible. In FIG. 10 B the question of whether DY-635 binds as an inhibitor to the basolateral hepatocytic transporters was investigated. For this purpose, the HEK-293T cells transfected with the tissue-specific transporters were sown and incubated as described above. After 24 hours the cells were incubated for 5 minutes with either a radioactively labeled transporter-specific substrate or with the radioactive-specific substrate with a specific inhibitor or with DY-635 (10 μmol/L final concentration) (the substrates and their concentrations are shown in Table 3 below). The cells were then washed and lysed in the well. To quantify the uptake, the radioactive radiation of the substrates was used. […] This illustrates the strong interaction of DY-635 with the tissue-specific hepatocytic transporters. It can be concluded that by exposure of DY-635 to the surface of a nanostructured transporter system, immobilization on the cell surface of the hepatocyte occurs, resulting in subsequent endocytosis of the nanoparticle.

OATP1B1 = molecular target: T4, OATP1B1 (Homo sapiens, UniProt Q9Y6L6); experiment: as above; conditions: 10 μmol/L, 5 minutes; [3H]Estradiol 30 nM
T4 construct: expressed in transfected cells; host or cells: HEK-293T
T4 sequence (Q9Y6L6 1-691): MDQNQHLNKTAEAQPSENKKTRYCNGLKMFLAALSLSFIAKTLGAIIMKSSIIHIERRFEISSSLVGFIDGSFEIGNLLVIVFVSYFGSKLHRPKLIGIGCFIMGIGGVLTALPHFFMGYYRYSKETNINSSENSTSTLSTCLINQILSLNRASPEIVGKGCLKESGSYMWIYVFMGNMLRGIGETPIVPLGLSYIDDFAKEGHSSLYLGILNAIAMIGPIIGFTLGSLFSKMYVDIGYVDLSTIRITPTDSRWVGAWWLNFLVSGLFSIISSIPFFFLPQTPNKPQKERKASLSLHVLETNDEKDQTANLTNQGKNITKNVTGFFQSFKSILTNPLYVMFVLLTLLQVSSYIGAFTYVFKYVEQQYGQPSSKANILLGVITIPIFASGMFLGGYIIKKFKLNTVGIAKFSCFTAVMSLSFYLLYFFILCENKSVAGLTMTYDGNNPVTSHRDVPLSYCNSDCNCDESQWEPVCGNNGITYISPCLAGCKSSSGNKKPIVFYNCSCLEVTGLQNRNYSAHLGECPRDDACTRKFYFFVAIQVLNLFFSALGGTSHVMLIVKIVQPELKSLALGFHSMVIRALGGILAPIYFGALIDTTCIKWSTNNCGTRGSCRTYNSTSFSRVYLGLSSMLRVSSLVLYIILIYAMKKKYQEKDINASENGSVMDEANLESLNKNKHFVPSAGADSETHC
Method: as §2

OATP1B3 = molecular target: T5, OATP1B3 (Homo sapiens, UniProt Q9NPD5); experiment: as above; conditions: 10 μmol/L, 5 minutes; [3H]Sulfobromophthalein
T5 construct: expressed in transfected cells; host or cells: HEK-293T
T5 sequence (Q9NPD5 1-702): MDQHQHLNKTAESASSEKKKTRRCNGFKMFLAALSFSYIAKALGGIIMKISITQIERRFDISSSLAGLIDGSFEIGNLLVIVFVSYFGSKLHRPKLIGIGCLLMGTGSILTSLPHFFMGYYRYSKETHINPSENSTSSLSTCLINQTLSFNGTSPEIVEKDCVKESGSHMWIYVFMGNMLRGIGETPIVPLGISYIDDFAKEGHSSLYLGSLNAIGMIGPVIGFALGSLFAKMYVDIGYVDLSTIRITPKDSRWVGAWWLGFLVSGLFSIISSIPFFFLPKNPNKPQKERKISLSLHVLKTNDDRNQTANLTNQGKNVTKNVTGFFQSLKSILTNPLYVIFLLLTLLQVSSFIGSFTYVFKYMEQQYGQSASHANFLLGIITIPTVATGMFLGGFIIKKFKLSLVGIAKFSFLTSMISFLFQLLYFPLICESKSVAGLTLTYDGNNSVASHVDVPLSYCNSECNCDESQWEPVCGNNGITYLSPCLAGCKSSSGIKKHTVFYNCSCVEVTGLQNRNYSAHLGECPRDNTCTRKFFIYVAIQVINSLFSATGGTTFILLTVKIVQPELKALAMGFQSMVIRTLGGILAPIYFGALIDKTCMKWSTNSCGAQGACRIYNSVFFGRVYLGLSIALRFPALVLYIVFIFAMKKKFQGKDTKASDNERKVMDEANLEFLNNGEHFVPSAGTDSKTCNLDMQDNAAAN
Method: as §2

OCT1 [2] = molecular target: T2, OCT1; experiment: as above; conditions: 10 μmol/L, 5 minutes; [3H]1-Methyl-4-phenylpyridinium
Method: as §2

`CC(C)(C)C1=CC(=CC=CC2=[N+](CCCCCC(=O)O)c3ccc(S(=O)(=O)[O-])cc3C2(C)C)c2cc3c4c(c2O1)CCCN4CCC3` [DY-635] was tested, and the “uptake of DY-635 by NTCP” value (NTCP) was “substrate for NTCP”, the “uptake of DY-635 by OCT1” value (OCT1 [1]) was “negligible” and the “inhibition of OAT2” value (OAT2) was “inhibited”. The “inhibition of OATP1B1” value (OATP1B1) was “strong indicator”, the “inhibition of OATP1B3” value (OATP1B3) was “strong indicator” and the “inhibition of OCT1” value (OCT1 [2]) was “inhibited”.

Reference: patent publication US9795688B2, “Cell-specific targeting using nanostructured delivery systems” (SmartDyeLivery GmbH, priority 2013, dated 2017)
